This is an account of results in patent US12024504B2, “1-methyl-1H-pyrazol-3-yl derivatives for use in the treatment of neovascular diseases” (EXONATE LIMITED, priority 2021, dated 2024).

In brackets after ≈: the same amount, converted by molar mass.

Data set [1] in a line: Porcine scleral permeability (modified Ussing chamber). It is filed as in vitro ADME. The note with it: for Papp at 24 h, 10 μg/mL: pig, pH 7.4, porcine excised eye tissue, 10 μg/mL compound on donor side. As for the experimental part:
Scleral permeability was measured using a modified Ussing chamber assembly in the initial eye drop formulation containing 1% hydroxypropyl methyl cellulose, 0.2% tyloxapol, 3.4% dextrose, 0.006% benzalkonium chloride, and 0.025% ethylenediaminetetraacetic acid with 1% DMSO in PBS (pH 7.4). Porcine excised eye tissues were mounted in the chambers such that the episcleral side faced the donor chamber and the retinal side faced the receiver chamber. The chambers were filled with equal volumes of eye drop formulation, with (donor side) or without (receiver side) 10 μg/mL compound. After 24 hours tissue was removed from the chamber and the receiver side (“vitreous”) sampled. Tissue was dissected into sclera, choroid/RPE, and retina and homogenised. A tracer (SPHINX7; WO 2015/159103) was added, and tissue extracted by acetonitrile extraction as described in Batson et al (2017). Compounds were then analysed by mass spectrometry as described in Batson et al (2017).
To determine whether compounds could get across the sclera of a larger animal, porcine sclera was clamped between two chambers and compounds were added to the sclera with eye drop formulation added to the bottom chamber and compounds added to the top chamber. After 24 hours, the fluid from the bottom chamber (vitreous) and the retinal tissue was isolated and compounds purified by methanol or acetonitrile extraction and HPLC.

The subject of data set [2] is VEGF165b and VEGF165. Particulars: cited from earlier work.
Data set [3] concerns the target T1, SRPK1 (Homo sapiens, UniProt Q96SB4).
T1 construct: purchased MRC Dundee Kinase Centre (external assay service)
Kind of data set: In vitro kinase assay (radioactive filter binding, 33P ATP). It is filed as biochemical. As for the experimental part:
Kinase assays were carried out by the MRC Dundee Kinase Centre using a radioactive filter binding assay using ^33P ATP (Hastie, et al 2006. Nat Protoc. 2006; 1(2):968-71; Bain, et al 2007. Biochem J. 2007 Dec. 15; 408(3):297-315).

Data set [4] in a line: Solubility in eye drop formulation. It is filed as physicochemical. The note with it: aqueous with cosolvent or surfactant or cyclodextrin; initial eye drop formulation (1% HPMC, 0.2% tyloxapol, 3.4% dextrose, 1% DMSO in PBS); read-out: Maximum limit of solubility.
In data set [5] the test system is choroidal neovascularisation. The note with it: mouse models of choroidal neovascularisation, previously shown; cited from earlier work.
The conditions of data set [6]: 0.5 mg monthly, at one year; cited from earlier work.

T1 sequence (Q96SB4 whole entry): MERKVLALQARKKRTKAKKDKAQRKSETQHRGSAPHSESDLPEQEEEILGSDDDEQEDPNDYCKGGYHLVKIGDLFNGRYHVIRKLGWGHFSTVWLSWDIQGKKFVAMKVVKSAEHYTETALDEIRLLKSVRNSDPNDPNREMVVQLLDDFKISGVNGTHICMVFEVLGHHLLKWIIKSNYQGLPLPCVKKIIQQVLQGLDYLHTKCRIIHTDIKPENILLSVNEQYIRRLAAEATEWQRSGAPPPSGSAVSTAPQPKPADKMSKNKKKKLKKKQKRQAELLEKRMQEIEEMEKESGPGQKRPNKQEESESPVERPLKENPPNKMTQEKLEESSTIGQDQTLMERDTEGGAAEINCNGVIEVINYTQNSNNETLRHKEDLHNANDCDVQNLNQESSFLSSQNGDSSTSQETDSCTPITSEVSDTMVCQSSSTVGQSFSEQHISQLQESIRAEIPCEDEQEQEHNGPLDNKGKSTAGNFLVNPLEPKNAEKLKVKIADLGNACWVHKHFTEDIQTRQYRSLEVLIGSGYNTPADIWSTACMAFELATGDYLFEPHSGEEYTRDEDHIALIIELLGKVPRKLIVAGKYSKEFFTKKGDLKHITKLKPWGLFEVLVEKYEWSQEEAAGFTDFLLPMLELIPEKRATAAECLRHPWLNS

`O=C(Nc1cc(C(F)(F)F)ccc1N1CCN(Cc2cc[nH]n2)CC1)c1ccc(C2CCOCC2)o1` [Compound R, N-(2-(4-((1H-pyrazol-3-yl)methyl)piperazin-1-yl)-5-(trifluoromethyl)-phenyl)-5-(tetrahydro-2H-pyran-4-yl)furan-2-carboxamide, reference compound]: in data set [1] (24 hours, FIG. 1), the “Permeability across porcine sclera (in words)” value is “considerably lower permeability”.

With “bevicizumab: an anti-VEGF antibody from which Lucentis was derived”, the “Binding of VEGF165b relative to VEGF165” value in data set [2] is given as “equal potency”.

Consider `Cn1ccc(CN2CCCN(c3ccc(C(F)(F)F)cc3NC(=O)c3ccc(C4CCOCC4)o3)CC2)n1` [Compound 2, N-(2-(4-((1-methyl-1H-pyrazol-3-yl)methyl)-1,4-diazepan-1-yl)-5-(trifluoromethyl)phenyl)-5-(tetrahydro-2H-pyran-4-yl)furan-2-carboxamide], for which the apparent permeability (Papp) (as a rule, a coefficient for how fast a substance crosses the barrier) at 24 h, 10 μg/mL in data set [1] was 0.0442 ×10⁻⁶ cm/s. Besides, the IC50 (usually the concentration at which inhibition is half-maximal) in data set [3] came to 10 nM.

As for `Cn1ccc(CN2CCCN(c3ccc(Cl)cc3NC(=O)c3ccc(C4CCOCC4)o3)CC2)n1` [Compound 3, N-(5-chloro-2-(4-((1-methyl-1H-pyrazol-3-yl)methyl)-1,4-diazepan-1-yl)phenyl)-5-(tetrahydro-2H-pyran-4-yl)furan-2-carboxamide], the melting point (in general, the temperature, or range, at which the solid turns liquid) is 148 to 150 °C. For the same molecule, the Papp at 24 h, 10 μg/mL in data set [1] amounted to 0.0675 ×10⁻⁶ cm/s. Further, in data set [3], the IC50 turned out to be 35 nM.

As for `Cc1ccc(Nc2nccc(N(C)c3ccc4c(C)n(C)nc4c3)n2)cc1S(N)(=O)=O` [pazopanib], the solubility (as a rule, the dissolved amount per volume that the medium holds) in data set [4] was determined as 80 µg/mL (≈ 183 µM).

For `O=C(Nc1cc(C(F)(F)F)ccc1N1CCN(Cc2ccccn2)CC1)c1ccc(-c2ccncc2)o1` [SPHINX31], in data set [5], the “Eye drop concentration of maximum effect” value is 2 µg/mL.

B1: Lucentis: a novel humanized anti-VEGF antibody fragment (antibody, chains of the INN, looked up, V domains shown)
VH: EVQLVESGGGLVQPGGSLRLSCAASGYDFTHYGMNWVRQAPGKGLEWVGWINTYTGEPTYAADFKRRFTFSLDTSKSTAYLQMNSLRAEDTAVYYCAKYPYYYGTSHWYFDVWGQGTLVTVSS
VL: DIQLTQSPSSLSASVGDRVTITCSASQDISNYLNWYQQKPGKAPKVLIYFTSSLHSGVPSRFSGSGSGTDFTLTISSLQPEDFATYYCQQYSTVPWTFGQGTKVEIK
modifications: Fab
notes: a novel humanized anti-VEGF antibody fragment
Take B1: in data set [6], the “Patients who maintained visual acuity (loss of <15 letters)” value is on record as “approximately 95%” and the “Patients with improved vision (gain of ≥15 letters)” value is recorded as at most 40%.
